# Measurements: PubChem BioAssay (NCI)
# “And” between values parts separate entries of the source, which are not always exact repeats. Equal values may be shown once.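 The compound was tested at five concentrations on cells cultured in 96-well plates, with a 48-hour exposure period. GI50 is the concentration that inhibits growth by half. TGI denotes the concentration required for complete inhibition of growth.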
# Experiments:
# Test in all cases: NCI anticancer screen, dose series, 48 h
# NCI-H226 lung = test system: NCI-H226 lung
# RPMI-8226 leukemia = test system: RPMI-8226 leukemia
# DMS 114 small cell lung = test system: DMS 114 small cell lung
# SK-MEL-5 melanoma = test system: SK-MEL-5 melanoma
# NCI-H460 lung = test system: NCI-H460 lung
# UACC-257 melanoma = test system: UACC-257 melanoma
# HOP-62 NSCLC = test system: HOP-62 NSCLC
# CCRF-CEM leukemia = test system: CCRF-CEM leukemia
# HOP-92 NSCLC = test system: HOP-92 NSCLC
# HOP-18 NSCLC = test system: HOP-18 NSCLC
# SW-620 colon = test system: SW-620 colon
# LXFL 529 NSCLC = test system: LXFL 529 NSCLC
# SN12C renal = test system: SN12C renal
# RXF 393 renal = test system: RXF 393 renal
# A498 renal = test system: A498 renal
# SK-MEL-28 melanoma = test system: SK-MEL-28 melanoma
# IGROV1 ovarian = test system: IGROV1 ovarian
# MOLT-4 leukemia = test system: MOLT-4 leukemia
# SNB-19 CNS = test system: SNB-19 CNS
# HT29 colon = test system: HT29 colon
# KM20L2 colon = test system: KM20L2 colon
# M19-MEL melanoma = test system: M19-MEL melanoma
# MALME-3M melanoma = test system: MALME-3M melanoma
# HL-60(TB) leukemia = test system: HL-60(TB) leukemia
# UO-31 renal = test system: UO-31 renal
# TK-10 renal = test system: TK-10 renal
# K-562 leukemia = test system: K-562 leukemia
# SNB-78 CNS = test system: SNB-78 CNS
# XF 498 CNS = test system: XF 498 CNS
# SK-OV-3 ovarian = test system: SK-OV-3 ovarian
# 786-0 renal = test system: 786-0 renal
# KM12 colon = test system: KM12 colon
# OVCAR-5 ovarian = test system: OVCAR-5 ovarian
# UACC-62 melanoma = test system: UACC-62 melanoma
# U251 CNS = test system: U251 CNS
# HCT-15 colon = test system: HCT-15 colon
# A549 NSCLC = test system: A549 NSCLC
# OVCAR-4 ovarian = test system: OVCAR-4 ovarian
# LOX IMVI melanoma = test system: LOX IMVI melanoma
# SK-MEL-2 melanoma = test system: SK-MEL-2 melanoma
# OVCAR-3 ovarian = test system: OVCAR-3 ovarian
# DLD-1 colon = test system: DLD-1 colon
# DMS 273 small cell lung = test system: DMS 273 small cell lung
# HCT-116 colon = test system: HCT-116 colon
# SNB-75 CNS = test system: SNB-75 CNS
# OVCAR-8 ovarian = test system: OVCAR-8 ovarian
# HCC-2998 colon = test system: HCC-2998 colon
# NCI-H23 lung = test system: NCI-H23 lung
# COLO 205 colon = test system: COLO 205 colon
# SF-268 CNS = test system: SF-268 CNS
# SF-295 CNS = test system: SF-295 CNS
# M14 melanoma = test system: M14 melanoma
# EKVX NSCLC = test system: EKVX NSCLC
# SF-539 CNS = test system: SF-539 CNS
# ACHN renal = test system: ACHN renal
# CAKI-1 renal = test system: CAKI-1 renal
# NCI-H522 lung = test system: NCI-H522 lung
smiles,measurement,setting,value
COc1cc(C2c3cc4c(cc3[C@@H](NCCN3CCCCC3)C3COC(=O)[C@H]23)OCO4)cc(OC)c1O (some centres not stated),TGI,NCI-H226 lung,0.209 µM and 0.208 µM
same,TGI,RPMI-8226 leukemia,5.69 µM and 3.93 µM
same,GI50,DMS 114 small cell lung,0.51 µM and 1.64 µM
same,TGI,DMS 114 small cell lung,10.9 µM and 16 µM
same,TGI,SK-MEL-5 melanoma,1.93 µM and 2.19 µM
same,GI50,NCI-H460 lung,0.0285 µM
same,TGI,NCI-H460 lung,1.03 µM and 0.914 µM
same,TGI,UACC-257 melanoma,41.4 µM and 85 µM
same,TGI,HOP-62 NSCLC,0.283 µM
same,TGI,CCRF-CEM leukemia,0.36 µM and 0.465 µM
same,TGI,HOP-92 NSCLC,0.84 µM and 1.64 µM
same,TGI,HOP-18 NSCLC,3.73 µM and 29.4 µM
same,TGI,SW-620 colon,11.4 µM and 10.2 µM
same,TGI,LXFL 529 NSCLC,14.5 µM and 15.2 µM
same,TGI,SN12C renal,5.81 µM and 5.85 µM
same,GI50,RXF 393 renal,0.243 µM and 1.27 µM
same,TGI,RXF 393 renal,1.98 µM and 4.14 µM
same,TGI,A498 renal,0.904 µM and 1.47 µM
same,TGI,SK-MEL-28 melanoma,7.22 µM and 11.4 µM
same,TGI,IGROV1 ovarian,4.56 µM and 7.55 µM
same,TGI,MOLT-4 leukemia,0.0735 µM and 0.0311 µM
same,TGI,SNB-19 CNS,> 100 µM and 36.7 µM
same,TGI,HT29 colon,3.56 µM
same,TGI,KM20L2 colon,8.14 µM and 11.5 µM
same,TGI,M19-MEL melanoma,5.4 µM and 4.14 µM
same,TGI,MALME-3M melanoma,2.59 µM and 3.44 µM
same,TGI,HL-60(TB) leukemia,0.402 µM and 0.36 µM
same,TGI,UO-31 renal,1.8 µM and 1.99 µM
same,TGI,TK-10 renal,5.34 µM and 5.88 µM
same,TGI,K-562 leukemia,20.8 µM and 18 µM
same,TGI,SNB-78 CNS,8.09 µM and 23.3 µM
same,GI50,XF 498 CNS,0.585 µM and 1.27 µM
same,TGI,XF 498 CNS,4.01 µM and 4.2 µM
same,TGI,SK-OV-3 ovarian,0.877 µM and 0.484 µM
same,TGI,786-0 renal,1.01 µM and 0.808 µM
same,TGI,KM12 colon,3.8 µM and 3.88 µM
same,TGI,OVCAR-5 ovarian,5.06 µM and 5.73 µM
same,TGI,UACC-62 melanoma,1.73 µM and 1.79 µM
same,TGI,U251 CNS,1.44 µM and 1.62 µM
same,TGI,HCT-15 colon,2.26 µM and 2.15 µM
same,TGI,A549 NSCLC,1.3 µM
same,TGI,OVCAR-4 ovarian,> 100 µM
same,TGI,LOX IMVI melanoma,1.72 µM and 1.61 µM
same,TGI,SK-MEL-2 melanoma,4.92 µM and 4.65 µM
same,TGI,OVCAR-3 ovarian,3.52 µM and 3.72 µM
same,TGI,DLD-1 colon,6.78 µM and 10.2 µM
same,TGI,DMS 273 small cell lung,1.27 µM and 1.44 µM
same,TGI,HCT-116 colon,10.6 µM and 14.6 µM
same,TGI,SNB-75 CNS,2.9 µM
same,TGI,OVCAR-8 ovarian,2.45 µM and 3.41 µM
same,GI50,HCC-2998 colon,0.427 µM and 1.09 µM
same,TGI,HCC-2998 colon,1.97 µM and 2.37 µM
same,TGI,NCI-H23 lung,1.39 µM and 1.48 µM
same,TGI,COLO 205 colon,> 100 µM
same,TGI,SF-268 CNS,6 µM and 15.8 µM
same,TGI,SF-295 CNS,0.881 µM
same,TGI,M14 melanoma,1.44 µM and 2 µM
same,TGI,EKVX NSCLC,5.28 µM and 5.71 µM
same,TGI,SF-539 CNS,0.842 µM and 0.896 µM
CC1CC(c2cccc3c2OCO3)=Nc2ccccc2S1 (configuration not stated),TGI,NCI-H226 lung,> 100 µM
same,TGI,RPMI-8226 leukemia,> 100 µM
same,TGI,DMS 114 small cell lung,> 100 µM
same,TGI,SK-MEL-5 melanoma,> 100 µM
same,TGI,NCI-H460 lung,> 100 µM
same,TGI,UACC-257 melanoma,> 100 µM
same,TGI,CCRF-CEM leukemia,> 100 µM
same,TGI,HOP-92 NSCLC,> 100 µM
same,TGI,SW-620 colon,> 100 µM
same,TGI,LXFL 529 NSCLC,> 100 µM
same,TGI,SN12C renal,> 100 µM
same,TGI,RXF 393 renal,> 100 µM
same,TGI,A498 renal,> 100 µM
same,TGI,ACHN renal,> 100 µM
same,TGI,SK-MEL-28 melanoma,> 100 µM
same,TGI,IGROV1 ovarian,> 100 µM
same,TGI,MOLT-4 leukemia,> 100 µM
same,TGI,SNB-19 CNS,> 100 µM
same,TGI,HT29 colon,> 100 µM
same,TGI,KM20L2 colon,> 100 µM
same,TGI,M19-MEL melanoma,> 100 µM
same,TGI,MALME-3M melanoma,> 100 µM
same,TGI,HL-60(TB) leukemia,> 100 µM
same,TGI,UO-31 renal,> 100 µM
same,TGI,TK-10 renal,> 100 µM
same,TGI,K-562 leukemia,> 100 µM
same,TGI,SNB-78 CNS,> 100 µM
same,TGI,XF 498 CNS,> 100 µM
same,TGI,SK-OV-3 ovarian,> 100 µM
same,TGI,786-0 renal,> 100 µM
same,TGI,KM12 colon,> 100 µM
same,TGI,OVCAR-5 ovarian,> 100 µM
same,TGI,UACC-62 melanoma,> 100 µM
same,TGI,HCT-15 colon,> 100 µM
same,TGI,A549 NSCLC,> 100 µM
same,TGI,OVCAR-4 ovarian,> 100 µM
same,TGI,LOX IMVI melanoma,> 100 µM
same,TGI,SK-MEL-2 melanoma,> 100 µM
same,TGI,OVCAR-3 ovarian,> 100 µM
same,TGI,DLD-1 colon,> 100 µM
same,TGI,DMS 273 small cell lung,> 100 µM
same,TGI,SNB-75 CNS,> 100 µM
same,TGI,OVCAR-8 ovarian,> 100 µM
same,TGI,HCC-2998 colon,> 100 µM
same,TGI,CAKI-1 renal,> 100 µM
same,TGI,NCI-H23 lung,> 100 µM
same,TGI,COLO 205 colon,> 100 µM
same,TGI,SF-268 CNS,> 100 µM
same,TGI,SF-295 CNS,> 100 µM
same,TGI,M14 melanoma,> 100 µM
same,TGI,EKVX NSCLC,> 100 µM
same,TGI,NCI-H522 lung,> 100 µM
same,TGI,SF-539 CNS,> 100 µM
